Experimental data as given in patent publication US11945822B2, “Pyrazolo-triazine and/or pyrazolo-pxrimidine derivatives as selective inhibitor of cyclin dependent kinase” (QURIENT CO., LTD., priority 2018, dated 2024).

Target: T1, CDK1/Cyclin B (Homo sapiens, UniProt P06493)
T1 construct: purchased Invitrogen PR4768C
Experiment: Enzymatic assay for CDK1 (FRET based LANCE Ultra kinase assay)
Type: biochemical
Conditions: read-out: CDK1 enzymatic activity (IC50 range)
Procedure, shortened: (§1)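 Each CDK complex ([…]) phosphorylated 68 nM ULight-MBP peptide with ATP at Km for 60 min at 23° C., against 8 compound doses (4-fold dilutions). EDTA/Eu-anti-phospho-MBP detection, 60 min, then TR-FRET emission at 615 and 665 nm.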

T1 sequence (P06493 whole entry): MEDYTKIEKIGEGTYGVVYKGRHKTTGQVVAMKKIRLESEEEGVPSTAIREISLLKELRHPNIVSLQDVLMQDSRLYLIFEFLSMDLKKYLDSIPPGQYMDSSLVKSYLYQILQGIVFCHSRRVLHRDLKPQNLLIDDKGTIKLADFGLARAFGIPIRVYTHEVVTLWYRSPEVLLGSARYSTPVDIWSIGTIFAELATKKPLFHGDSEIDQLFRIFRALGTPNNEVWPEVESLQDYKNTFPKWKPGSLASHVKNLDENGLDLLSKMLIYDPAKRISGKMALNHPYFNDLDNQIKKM
T1 sequence (P14635 whole entry partner): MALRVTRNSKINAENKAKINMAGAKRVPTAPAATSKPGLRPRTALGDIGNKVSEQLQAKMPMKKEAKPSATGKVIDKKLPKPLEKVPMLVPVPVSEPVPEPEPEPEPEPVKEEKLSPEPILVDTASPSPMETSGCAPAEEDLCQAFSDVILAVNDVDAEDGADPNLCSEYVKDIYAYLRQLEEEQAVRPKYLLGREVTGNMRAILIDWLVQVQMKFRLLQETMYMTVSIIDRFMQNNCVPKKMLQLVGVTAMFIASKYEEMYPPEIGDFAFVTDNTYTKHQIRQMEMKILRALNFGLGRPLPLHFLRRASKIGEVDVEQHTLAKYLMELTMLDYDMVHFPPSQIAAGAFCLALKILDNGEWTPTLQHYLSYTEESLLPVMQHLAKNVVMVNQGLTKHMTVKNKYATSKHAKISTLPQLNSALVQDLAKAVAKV

| IC50 [µM] | SMILES |
| --- | --- |
| > 1 | CC(C)c1cnn2c(N[C@@H](C)c3ccccc3-c3cc4ccccc4[nH]3)nc(N3CCC(N)CC3)nc12 [Compound 187] |
| > 1 | CC(C)c1cnn2c(N[C@H](C)c3ccccc3-c3cc4ccccc4[nH]3)nc(N3CCC(N)CC3)nc12 [Compound 188] |
| > 1 | CC(C)c1cnn2c(NCc3c(Cl)cccc3-n3cc4c(n3)CCNC4=O)nc(N3CCC(N)CC3)nc12 [Compound 189] |
| > 1 | CC(C)c1cnn2c(N[C@@H](C)c3ccccc3-n3cc(N4CCNCC4)cn3)nc(N3CCC(N)CC3)nc12 [Compound 192] |

Target: T2, CDK2/Cyclin A (Homo sapiens, UniProt P24941)
T2 construct: purchased Invitrogen PV6290
Experiment: Enzymatic assay for CDK2 (FRET based LANCE Ultra kinase assay)
Type: biochemical
Conditions: read-out: CDK2 enzymatic activity (IC50 range)
Procedure, shortened: as §1

| IC50 [µM] | SMILES |
| --- | --- |
| > 1 | CC(C)c1cnn2c(N[C@@H](C)c3ccccc3-c3cc4ccccc4[nH]3)nc(N3CCC(N)CC3)nc12 [Compound 187] |
| > 1 | CC(C)c1cnn2c(N[C@H](C)c3ccccc3-c3cc4ccccc4[nH]3)nc(N3CCC(N)CC3)nc12 [Compound 188] |
| > 1 | CC(C)c1cnn2c(NCc3c(Cl)cccc3-n3cc4c(n3)CCNC4=O)nc(N3CCC(N)CC3)nc12 [Compound 189] |
| > 1 | CC(C)c1cnn2c(N[C@@H](C)c3ccccc3-n3cc(N4CCNCC4)cn3)nc(N3CCC(N)CC3)nc12 [Compound 192] |

Test system: MM.1S
Experiment: Cellular MM.1S viability assay (CellTiter-Glo, 72 hours)
Type: cell-based
Conditions: Homo sapiens, MM1.S
Excerpt: Human T-cell acute lymphoblastic leukemia cell line, MOLT-4 (ATCC, Cat #CRL-1582), Human multiple myeloma cell line, RPMI-8226 (Invitrogen, Cat #22400-089) and MM.1S (ATCC, Cat #CRL-2974), NSCLC (Non-small cell lung cancer) cell line H460 (ATCC, Cat #HTB-177), Human colon colorectal carcinoma cell line HCT116 (ATCC, Cat #CCL-247), Human acute monocytic leukemia cell line MV4-11 (ATCC, Cat #CRL-9591), OVCAR-3 (ATCC, Cat #HTB-161) and A2780 (ECACC, Cat #93112519) were obtained from ATCC. Cells were grown in RPMI-1640 media (Invitrogen, Cat #22400-089) supplemented with 10% FBS (Invitrogen, Cat #10099141) and 1% penicillin/streptomycin (Invitrogen, Cat #15070063) and cultured at 37° C., 5% CO2 in a humidified chamber. All cell lines were routinely tested for mycoplasma.
The effect of the CDK7 inhibitor to inhibit the growth of target cancer cells was evaluated through the 72 hours time period of viability assay. Briefly, the candidate cell line ware plated in 96 well plate at the following density of cells respectively. 1×10^4 cells/well for MOLT-4, RPMI-8226, MV4-11 and MM.1S, 5×10^3 for H460, HCT116 and OVCAR-3 and IX 10^3 for A2780. After 24 hours, the cells were treated with various concentrations of the compound (ranging from 0.0015 uM to 10 uM). DMSO solvent without compound served as a control and final DMSO concentration less than 0.1%. After 72 hours of incubation at 37° C., 5% CO2 incubator, cells were analyzed for the viability using the CellTiter-Glo Luminescent Cell Viability Assay (Promega, Cat #G7570). All viability assays were performed in duplicate and Luminescence was read using an Envision (Perkin Elmer, USA). Data was analyzed using XLfit software.

| IC50 [µM] | SMILES |
| --- | --- |
| 1 to 10 | CC(C)c1cnn2c(N[C@@H](C)c3ccccc3-c3cc4ccccc4[nH]3)nc(N3CCC(N)CC3)nc12 [Compound 187] |
| 1 to 10 | CC(C)c1cnn2c(N[C@H](C)c3ccccc3-c3cc4ccccc4[nH]3)nc(N3CCC(N)CC3)nc12 [Compound 188] |
| ≤ 1 | CC(C)c1cnn2c(NCc3c(Cl)cccc3-n3cc4c(n3)CCNC4=O)nc(N3CCC(N)CC3)nc12 [Compound 189] |
| 1 to 10 | CC(C)c1cnn2c(N[C@@H](C)c3ccccc3-n3cc(N4CCNCC4)cn3)nc(N3CCC(N)CC3)nc12 [Compound 192] |

Target: T3, CDK5/p25 (Homo sapiens, UniProt Q00535)
T3 construct: purchased Invitrogen PR8543B
Experiment: Enzymatic assay for CDK5 (FRET based LANCE Ultra kinase assay)
Type: biochemical
Conditions: read-out: CDK5 enzymatic activity (IC50 range)
Procedure, shortened: as §1

T3 sequence (Q00535 whole entry): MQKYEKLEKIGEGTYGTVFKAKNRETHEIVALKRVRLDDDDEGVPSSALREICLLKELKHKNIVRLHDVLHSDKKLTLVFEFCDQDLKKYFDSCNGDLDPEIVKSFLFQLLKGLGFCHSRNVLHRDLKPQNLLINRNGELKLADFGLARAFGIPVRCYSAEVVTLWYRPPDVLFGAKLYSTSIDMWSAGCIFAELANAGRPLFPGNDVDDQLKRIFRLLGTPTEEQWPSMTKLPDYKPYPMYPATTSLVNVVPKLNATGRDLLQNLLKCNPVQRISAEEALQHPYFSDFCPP
T3 sequence (Q15078 99-307 partner limits assumed): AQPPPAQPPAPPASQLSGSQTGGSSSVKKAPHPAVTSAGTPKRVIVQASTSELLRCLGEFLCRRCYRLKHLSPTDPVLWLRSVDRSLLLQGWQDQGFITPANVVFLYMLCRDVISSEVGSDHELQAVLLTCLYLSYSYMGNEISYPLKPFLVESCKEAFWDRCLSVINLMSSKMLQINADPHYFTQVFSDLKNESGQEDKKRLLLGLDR

| IC50 [µM] | SMILES |
| --- | --- |
| > 1 | CC(C)c1cnn2c(N[C@@H](C)c3ccccc3-c3cc4ccccc4[nH]3)nc(N3CCC(N)CC3)nc12 [Compound 187] |
| > 1 | CC(C)c1cnn2c(N[C@H](C)c3ccccc3-c3cc4ccccc4[nH]3)nc(N3CCC(N)CC3)nc12 [Compound 188] |
| 0.1 to 1 | CC(C)c1cnn2c(NCc3c(Cl)cccc3-n3cc4c(n3)CCNC4=O)nc(N3CCC(N)CC3)nc12 [Compound 189] |
| > 1 | CC(C)c1cnn2c(N[C@@H](C)c3ccccc3-n3cc(N4CCNCC4)cn3)nc(N3CCC(N)CC3)nc12 [Compound 192] |

Target: T4, CDK7/Cyclin H/MNAT1 (Homo sapiens, UniProt P50613)
T4 construct: purchased Invitrogen PR6749B
Experiment: Enzymatic assay for CDK7 (FRET based LANCE Ultra kinase assay)
Type: biochemical
Conditions: CDK7 over CDK1
Procedure, shortened: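 Inhibition was measured at Km ATP by time-resolved FRET between a Eu anti-phospho antibody and a phosphorylated ULight peptide. The enzyme was the purified CDK7/cyclin complex, and data were curve-fitted.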

T4 sequence (P50613 whole entry): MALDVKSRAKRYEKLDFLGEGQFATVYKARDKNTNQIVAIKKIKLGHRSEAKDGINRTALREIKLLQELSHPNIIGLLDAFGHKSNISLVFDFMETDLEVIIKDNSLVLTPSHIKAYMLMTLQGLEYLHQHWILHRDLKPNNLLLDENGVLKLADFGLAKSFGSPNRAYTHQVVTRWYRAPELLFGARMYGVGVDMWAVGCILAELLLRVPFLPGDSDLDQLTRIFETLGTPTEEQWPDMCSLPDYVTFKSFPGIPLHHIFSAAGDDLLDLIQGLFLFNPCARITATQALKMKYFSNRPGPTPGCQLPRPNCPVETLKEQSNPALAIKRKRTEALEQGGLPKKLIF
T4 sequence (P51946 whole entry partner): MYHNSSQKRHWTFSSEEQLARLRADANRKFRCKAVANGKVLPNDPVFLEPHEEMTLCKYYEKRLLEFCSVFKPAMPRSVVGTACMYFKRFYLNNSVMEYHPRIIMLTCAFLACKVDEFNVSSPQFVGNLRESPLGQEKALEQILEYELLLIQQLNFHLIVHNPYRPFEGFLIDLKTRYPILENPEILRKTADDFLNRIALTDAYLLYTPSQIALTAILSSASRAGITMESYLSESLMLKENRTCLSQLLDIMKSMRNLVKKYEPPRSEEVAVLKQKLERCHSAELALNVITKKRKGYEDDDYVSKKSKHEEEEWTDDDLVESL
T4 sequence (P51948 whole entry partner): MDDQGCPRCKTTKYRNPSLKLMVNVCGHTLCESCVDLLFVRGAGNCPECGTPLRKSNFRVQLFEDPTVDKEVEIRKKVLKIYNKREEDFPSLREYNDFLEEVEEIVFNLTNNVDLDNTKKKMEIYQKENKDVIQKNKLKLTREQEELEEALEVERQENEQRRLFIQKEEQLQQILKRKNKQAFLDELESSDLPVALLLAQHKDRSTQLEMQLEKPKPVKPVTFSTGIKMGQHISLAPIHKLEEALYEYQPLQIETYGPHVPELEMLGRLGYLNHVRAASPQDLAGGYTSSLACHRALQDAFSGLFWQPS

| CDK1/CDK7: Selectivity of CDK7 inhibition over CDK1 inhibition | SMILES |
| --- | --- |
| A (A=greater than 200 fold) | CC(C)c1cnn2c(N[C@@H](C)c3ccccc3-c3cc4ccccc4[nH]3)nc(N3CCC(N)CC3)nc12 [Compound 187] |
| A (A=greater than 200 fold) | CC(C)c1cnn2c(NCc3c(Cl)cccc3-n3cc4c(n3)CCNC4=O)nc(N3CCC(N)CC3)nc12 [Compound 189] |
| A (A=greater than 200 fold) | CC(C)c1cnn2c(N[C@@H](C)c3ccccc3-n3cc(N4CCNCC4)cn3)nc(N3CCC(N)CC3)nc12 [Compound 192] |

| SMILES | CDK1/CDK7: Selectivity of CDK7 inhibition over CDK1 inhibition |
| --- | --- |
| CC(C)c1cnn2c(N[C@H](C)c3ccccc3-c3cc4ccccc4[nH]3)nc(N3CCC(N)CC3)nc12 [Compound 188] | B (B=less than 200 fold, but greater than 20 fold) |

Same assay, conditions: CDK7 over CDK2

| CDK2/CDK7: Selectivity of CDK7 inhibition over CDK2 inhibition | SMILES |
| --- | --- |
| A (A=greater than 200 fold) | CC(C)c1cnn2c(N[C@@H](C)c3ccccc3-c3cc4ccccc4[nH]3)nc(N3CCC(N)CC3)nc12 [Compound 187] |
| C (C=less than 20 fold) | CC(C)c1cnn2c(N[C@H](C)c3ccccc3-c3cc4ccccc4[nH]3)nc(N3CCC(N)CC3)nc12 [Compound 188] |
| A (A=greater than 200 fold) | CC(C)c1cnn2c(NCc3c(Cl)cccc3-n3cc4c(n3)CCNC4=O)nc(N3CCC(N)CC3)nc12 [Compound 189] |
| A (A=greater than 200 fold) | CC(C)c1cnn2c(N[C@@H](C)c3ccccc3-n3cc(N4CCNCC4)cn3)nc(N3CCC(N)CC3)nc12 [Compound 192] |

Same assay, conditions: CDK7 over CDK5

| CDK5/CDK7: Selectivity of CDK7 inhibition over CDK5 inhibition | SMILES |
| --- | --- |
| A (A=greater than 200 fold) | CC(C)c1cnn2c(N[C@@H](C)c3ccccc3-c3cc4ccccc4[nH]3)nc(N3CCC(N)CC3)nc12 [Compound 187] |
| C (C=less than 20 fold) | CC(C)c1cnn2c(N[C@H](C)c3ccccc3-c3cc4ccccc4[nH]3)nc(N3CCC(N)CC3)nc12 [Compound 188] |
| A (A=greater than 200 fold) | CC(C)c1cnn2c(N[C@@H](C)c3ccccc3-n3cc(N4CCNCC4)cn3)nc(N3CCC(N)CC3)nc12 [Compound 192] |

| SMILES | CDK5/CDK7: Selectivity of CDK7 inhibition over CDK5 inhibition |
| --- | --- |
| CC(C)c1cnn2c(NCc3c(Cl)cccc3-n3cc4c(n3)CCNC4=O)nc(N3CCC(N)CC3)nc12 [Compound 189] | B (B=less than 200 fold, but greater than 20 fold) |

Same assay, conditions: read-out: CDK7 enzymatic activity (IC50 range)

| IC50 [µM] | SMILES |
| --- | --- |
| < 0.1 | CC(C)c1cnn2c(N[C@@H](C)c3ccccc3-c3cc4ccccc4[nH]3)nc(N3CCC(N)CC3)nc12 [Compound 187] |
| 0.1 to 1 | CC(C)c1cnn2c(N[C@H](C)c3ccccc3-c3cc4ccccc4[nH]3)nc(N3CCC(N)CC3)nc12 [Compound 188] |
| < 0.1 | CC(C)c1cnn2c(NCc3c(Cl)cccc3-n3cc4c(n3)CCNC4=O)nc(N3CCC(N)CC3)nc12 [Compound 189] |
| < 0.1 | CC(C)c1cnn2c(N[C@@H](C)c3ccccc3-n3cc(N4CCNCC4)cn3)nc(N3CCC(N)CC3)nc12 [Compound 192] |

Test system: HCT116
Experiment: Cellular HCT116 viability assay (CellTiter-Glo, 72 hours)
Type: cell-based
Conditions: Homo sapiens, HCT-116
Procedure, shortened: (§2)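 Growth inhibition is assessed over a 72-hour incubation at 37 °C in 5% CO2, relative to DMSO vehicle (final concentration less than 0.1%). Luminescence from CellTiter-Glo serves as the viability signal.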

| IC50 [µM] | SMILES |
| --- | --- |
| < 1 | CC(C)c1cnn2c(NCc3c(Cl)cccc3-n3cc4c(n3)CCNC4=O)nc(N3CCC(N)CC3)nc12 [Compound 189] |
| < 1 | CC(C)c1cnn2c(N[C@@H](C)c3ccccc3-n3cc(N4CCNCC4)cn3)nc(N3CCC(N)CC3)nc12 [Compound 192] |

Test system: MV4-11
Experiment: Cellular MV4-11 viability assay (CellTiter-Glo, 72 hours)
Type: cell-based
Conditions: Homo sapiens
Procedure, shortened: as §2

| IC50 [µM] | SMILES |
| --- | --- |
| 1 to 10 | CC(C)c1cnn2c(N[C@@H](C)c3ccccc3-c3cc4ccccc4[nH]3)nc(N3CCC(N)CC3)nc12 [Compound 187] |
| 1 to 10 | CC(C)c1cnn2c(N[C@H](C)c3ccccc3-c3cc4ccccc4[nH]3)nc(N3CCC(N)CC3)nc12 [Compound 188] |
| < 1 | CC(C)c1cnn2c(NCc3c(Cl)cccc3-n3cc4c(n3)CCNC4=O)nc(N3CCC(N)CC3)nc12 [Compound 189] |
| < 1 | CC(C)c1cnn2c(N[C@@H](C)c3ccccc3-n3cc(N4CCNCC4)cn3)nc(N3CCC(N)CC3)nc12 [Compound 192] |

Test system: H460
Experiment: Cellular H460 viability assay (CellTiter-Glo, 72 hours)
Type: cell-based
Conditions: Homo sapiens, NCI-H460
Procedure, shortened: as §2

| IC50 [µM] | SMILES |
| --- | --- |
| 1 to 10 | CC(C)c1cnn2c(N[C@@H](C)c3ccccc3-c3cc4ccccc4[nH]3)nc(N3CCC(N)CC3)nc12 [Compound 187] |
| 1 to 10 | CC(C)c1cnn2c(N[C@H](C)c3ccccc3-c3cc4ccccc4[nH]3)nc(N3CCC(N)CC3)nc12 [Compound 188] |
| < 1 | CC(C)c1cnn2c(NCc3c(Cl)cccc3-n3cc4c(n3)CCNC4=O)nc(N3CCC(N)CC3)nc12 [Compound 189] |
| 1 to 10 | CC(C)c1cnn2c(N[C@@H](C)c3ccccc3-n3cc(N4CCNCC4)cn3)nc(N3CCC(N)CC3)nc12 [Compound 192] |
